“Also recorded” adds a separate entry of the source. Like-named read-outs stand apart in the source and are kept apart here. Residues, ends and D or L forms follow the SMILES beside them. *: point of attachment. Cbz = O=C(OCc1ccccc1)*
Experiments:
primary MM cells = assay: MTS survival assay, primary bone-marrow MM tumor cells from patients; format: cell-based, human; details: FIG. 36C
Experimental: Primary bone-marrow tumor cells and endothelial progenitor cells (EPCs) were obtained from previously untreated MM patients. That is, 10 ml bone marrow aspirates were collected in BD Vacutainers containing heparin (BD, Franklin, N.J.), and red cells may be removed from MM bone marrow samples using a Red Blood Cell Lysis Buffer (Roche Applied Science, Indianapolis, Ind.) to obtain primary tumor cells in marrow samples consisting of greater than 80% CD138-positive tumor cells, determined by flow cytometry as may be desired. Tumor cells were used for experiments the day they were harvested, and were cultured in the MM cell line medium described above.
MAL3-101 (the structure is shown as the final product in FIG. 12, in FIG. 13, and in FIG. 25B), the proteasome inhibitor MG-132 (A.G. Scientific, San Diego, Calif.) and the Hsp90 inhibitor 17-allylamino-17-demethoxygeldanamycin (17-AAG) (Calbiochem/EMD Biosciences, San Diego, Calif.) were dissolved in dimethylsulfoxide (DMSO; Sigma-Aldrich, St. Louis, Mo.), and stored at −20° C. Final concentration of DMSO was 0.03% and this was used to treat control cells. The MM cell lines examined were NCI-H929, RPMI-8226, and U266 (ATCC, Manassas, Va.). Normal peripheral blood mononuclear cells (PBMC) and bone marrow (BM) cells were obtained from StemCell Technologies (Vancouver, Canada). […]

NCI-H929 = assay: cells
Experimental: For cell survival assays, cells were plated in 96-well culture plates (BD Biosciences, San Jose, Calif.), 100,000 cells/well with 200 μl, of culture media. The effect of the drugs on cell survival was assessed, for example, by measuring 3-(4,5-dimethylthiazol-2-yl)-5-(3-carboxymethoxyphenyl)-2-(4-sulphophenyl)-2H-tetrazolium, inner salt (MTS) (Promega, Madison, Wis.) dye absorbance of viable cells by adding 40 μL of 5 mg/mL MTS to each well for the last 4 hours of drug exposure. Additional wells containing cells only (untreated control) or medium only (background medium control) were used as controls. Absorbance at 490 nm (A490) was measured using a spectrophotometer (Dynatech Laboratories, Chantilly, Va.). Viability was estimated according to the following formula: […]
Briefly, the cellular fraction affected (Fa) was calculated based on an MTS assay after exposing cells to the drugs alone or in combination at a given dose compared to untreated cells, using the formula: Fa=100−% Viable Cells. Fa values were entered into Calcusyn software (Biosoft, Ferguson, Mo. and Cambridge, United Kingdom) to obtain CI values. CI values <1.0 indicated a synergistic effect of the drugs used in combination. For Inhibitory Concentration, or IC, calculations, dose-effect curves for MAL3-101, MG-132, 17-AAG, and their combinations were used to interpolate the median inhibitory concentration that caused 30% (IC30), 50% (IC50), and 70% (IC70) reductions in the % viable cells compared to untreated cells.
Cells (1×10^5) were plated in 96-well microtiter plates (Costar, Cambridge, Mass.) in 100 μL, of growth medium and exposed for indicated periods to various concentrations of compounds or their combinations. Control cells were cultured in DMSO. All studies were performed in triplicate and repeated at least three times independently. Survival was measured by an MTS assay (Promega, Madison, Wis.) as per the manufacturer's directions. The absorbance (A450) ratio of treated to untreated cells, after the subtraction of background absorbance, was multiplied by 100 to obtain percent cell survival. Cell death was measured by trypan blue dye exclusion in identically plated cultures.
DMSO-treated cultures were compared to drug-treated cultures by Student's t tests or by Dunnett's post-hoc test following significant repeated-measures one-way analysis of variance. All tests were two-tailed, and statistical significance was set at P≦0.05. Isobologram analysis was performed to derive combination index (CI) values based upon the Chou-Talalay method using CalcuSyn software (Biosoft, Ferguson, Mo. and Cambridge, United Kingdom) as described in L. Catley, E. Weisberg, T. Kiziltepe, Y. T. Tai, T. Hideshima, P. Neri, P. Tassone, P. Atadja, D. Chauhan, N. C. Munshi, K. C. Anderson, Aggresome induction by proteasome inhibitor Bortezomib and {alpha}-tubulin hyperacetylation by tubulin deacetylase (TDAC) inhibitor LBH589 are synergistic in myeloma cells, Blood (2006), which is incorporated herein by reference.

BiP = assay: Levels of ER lumenal chaperone BiP in NCI-H929; format: cell-based, human; details: NCI-H929, data not shown
[1] = read-out: IC50 (reduction of % viable cells), single agent, NCI-H929, 40 h exposure, MTS assay, agent alone

| SMILES | reduction of viability of MM cells extracted from the BM (primary MM cells) [%] | cytotoxicity compared among MM cell lines (NCI-H929; 10 μM, NCI-H929 versus RPMI-8226 and U266) | IC50 (NCI-H929; [1]) [nM] | IC50 (NCI-H929; read-out: IC50 as stated in the detailed description, multiple myeloma cells, rounded statement of the description) [nM] | levels of BiP (BiP) | IC50 (NCI-H929; Homo sapiens, NCI-H929, 40 h, read-out: IC50 (reduction of % viable cells), single agent, NCI-H929, 40 h exposure, MTS assay, agent alone) [nM] | IC50 (NCI-H929; Homo sapiens, NCI-H929, 40 h, read-out: IC50 of MG-132 in the presence of MAL3-101, NCI-H929, 40 h, MTS, MAL3-101 and MG-132 at equal concentrations) [nM] |
| --- | --- | --- | --- | --- | --- | --- | --- |
| CCCCCCN(C(=O)CCCCCN1C(=O)NC(c2ccc(-c3ccccc3)cc2)C(C(=O)OCc2ccccc2)=C1C)C(C(=O)NCCCC)c1ccc(OCC(=O)OC)c(C(=O)OC)c1 (stereo not shown) [MAL3-101] | 33±8 | most sensitive; also recorded: highest level of cytotoxicity | 8300 | 10000 | did not change |  |  |
| CC(C)C[C@@H](C=O)NC(=O)[C@H](CC(C)C)NC(=O)[C@H](CC(C)C)NC(=O)OCc1ccccc1 [MG-132, reference compound] (Cbz-Leu-Leu-Leu-aldehyde) | 44±10 |  | 1700 |  | did not change | 1000 | 10 |
